Measurements reported in the Kinase Knowledgebase extract (Sharma et al. 2016).

Target: CDK2 (UniProt P24941)
Assay: Enzyme Assay

Row | Structure (SMILES) | IC50 [µM]
1 | O=C1Nc2cccc(C3CCNCC3)c2/C1=C/c1cc2cc(OCCN3CCOCC3)ccc2[nH]1 | 1.96
2 | Cc1c(C(=O)N2CCOCC2)c[nH]c1/C=C1\C(=O)Nc2cccc(C3CCNCC3)c21 | 0.02
3 | Cc1nc[nH]c1/C=C1\C(=O)Nc2cccc(-c3ccncc3)c21 | 0.03
4 | O=C1Nc2cccc(C3CCNCC3)c2/C1=C/c1[nH]cc2c1CCNC2=O | 0.06
5 | O=C1Nc2cccc(-c3ccncc3)c2/C1=C/c1[nH]cc2c1CCOC2=O | 0.08
6 | Cc1nc[nH]c1/C=C1\C(=O)Nc2cccc(C3CCNCC3)c21 | 0.01
7 | Cc1c(C(=O)N2CCCCC2)c[nH]c1/C=C1\C(=O)Nc2cccc(-c3ccncc3)c21 | 0.75
8 | Cc1c(C(=O)N2CCCCC2)c[nH]c1/C=C1\C(=O)Nc2cccc(C3CCNCC3)c21 | 0.02
9 | O=C1Nc2cccc(C3CCNCC3)c2/C1=C/c1[nH]cc2c1CCOC2=O | 0.009
10 | CN1CCc2c(c[nH]c2/C=C2\C(=O)Nc3cccc(C4CCNCC4)c32)C1=O | 0.26

Target: EGFR (UniProt P00533)
Sequence (P00533 whole entry, looked up): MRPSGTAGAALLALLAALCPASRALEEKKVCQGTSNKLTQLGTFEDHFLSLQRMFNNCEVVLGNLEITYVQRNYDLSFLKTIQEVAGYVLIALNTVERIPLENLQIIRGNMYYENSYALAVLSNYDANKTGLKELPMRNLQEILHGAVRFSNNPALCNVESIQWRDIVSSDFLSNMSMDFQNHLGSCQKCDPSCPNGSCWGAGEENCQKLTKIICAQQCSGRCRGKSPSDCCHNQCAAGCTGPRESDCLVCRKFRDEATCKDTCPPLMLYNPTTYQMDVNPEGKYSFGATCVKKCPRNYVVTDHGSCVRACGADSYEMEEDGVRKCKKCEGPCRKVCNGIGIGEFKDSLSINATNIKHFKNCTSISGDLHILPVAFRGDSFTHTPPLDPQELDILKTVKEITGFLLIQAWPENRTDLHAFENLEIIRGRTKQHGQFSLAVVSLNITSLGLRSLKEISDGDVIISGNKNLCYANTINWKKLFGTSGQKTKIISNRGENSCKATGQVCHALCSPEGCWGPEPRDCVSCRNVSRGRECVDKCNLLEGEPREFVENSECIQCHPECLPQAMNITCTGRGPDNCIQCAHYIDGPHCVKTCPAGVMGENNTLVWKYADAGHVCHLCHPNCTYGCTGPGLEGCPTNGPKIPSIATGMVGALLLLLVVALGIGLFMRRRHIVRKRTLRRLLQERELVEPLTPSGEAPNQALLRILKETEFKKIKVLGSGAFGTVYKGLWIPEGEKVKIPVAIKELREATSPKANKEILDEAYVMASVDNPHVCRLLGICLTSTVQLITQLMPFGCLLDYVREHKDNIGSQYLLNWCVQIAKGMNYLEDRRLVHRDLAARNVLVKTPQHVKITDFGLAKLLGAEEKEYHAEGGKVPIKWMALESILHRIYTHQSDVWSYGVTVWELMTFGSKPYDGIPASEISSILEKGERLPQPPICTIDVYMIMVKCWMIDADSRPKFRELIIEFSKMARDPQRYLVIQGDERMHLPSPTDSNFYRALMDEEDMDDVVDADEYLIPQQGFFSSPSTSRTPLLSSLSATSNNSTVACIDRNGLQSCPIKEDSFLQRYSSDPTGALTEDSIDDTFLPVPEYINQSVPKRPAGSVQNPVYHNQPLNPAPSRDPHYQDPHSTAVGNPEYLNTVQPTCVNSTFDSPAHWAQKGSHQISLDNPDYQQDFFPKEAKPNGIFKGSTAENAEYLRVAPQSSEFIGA
Assay: not given

Row | Structure (SMILES) | IC50 [µM]
11 | CCN(CC)CCNC(=O)c1c(C)[nH]c(/C=C2\C(=O)Nc3cccc(C4CCNCC4)c32)c1C | > 20
12 | CCOC(=O)c1[nH]c(/C=C2\C(=O)Nc3cccc(C4CCNCC4)c32)c2c1CCCC2 | 14.7
13 | O=C1Nc2cccc(-c3ccncc3)c2/C1=C/c1cc2cc(OCCN3CCOCC3)ccc2[nH]1 | 17.9
14 | CCOC(=O)c1c(C)[nH]c(/C=C2\C(=O)Nc3cccc(-c4ccccn4)c32)c1CCCN1CCN(C)CC1 | > 20
15 | O=C1Nc2cccc(C3CCNCC3)c2/C1=C/c1cc2cc(OCCN3CCOCC3)ccc2[nH]1 | 19.1
16 | Cc1cc(C(=O)O)c(/C=C2\C(=O)Nc3cccc(-c4ccncc4)c32)[nH]1 | > 20
17 | O=C1Nc2cccc(C3CCNCC3)c2/C1=C/c1ccc(N2CCOCC2)cc1 | > 20
18 | Cc1[nH]c(/C=C2\C(=O)Nc3cccc(-c4cncc(C(=O)O)c4)c32)c(C)c1C(=O)N1CCN(C)CC1 | > 20
19 | CCOC(=O)c1c(C)[nH]c(/C=C2\C(=O)Nc3cccc(-c4cncnc4)c32)c1CCCN1CCN(C)CC1 | > 20
20 | Cc1[nH]c(/C=C2\C(=O)Nc3cccc(-c4cccnc4)c32)c(C)c1C(=O)N1CCN(C)CC1 | > 20
21 | Cc1[nH]c(/C=C2\C(=O)Nc3cccc(C4CCNCC4)c32)c(C)c1CC(=O)O | > 20
22 | Cc1c(C(=O)N2CCOCC2)c[nH]c1/C=C1\C(=O)Nc2cccc(C3CCNCC3)c21 | > 20
23 | Cc1cc(C)c(/C=C2\C(=O)Nc3cccc(-c4ccncc4)c32)[nH]1 | > 20
24 | Cc1nc[nH]c1/C=C1\C(=O)Nc2cccc(-c3ccncc3)c21 | > 20
25 | CCOC(=O)c1c(C)[nH]c(/C=C2\C(=O)Nc3cccc(-c4ccncc4)c32)c1CCC(=O)O | > 20
26 | Cc1[nH]c(/C=C2\C(=O)Nc3cccc(-c4ccncc4)c32)c(C)c1CCC(=O)O | > 20
27 | CCN(CC)CCNC(=O)c1c(C)[nH]c(/C=C2\C(=O)Nc3cccc(-c4cncc(C(=O)O)c4)c32)c1C | > 20
28 | Cc1[nH]c(/C=C2\C(=O)Nc3cccc(-c4cncnc4)c32)c(C)c1C(=O)N1CCN(C)CC1 | > 20
29 | Cc1[nH]c(/C=C2\C(=O)Nc3cccc(-c4nccs4)c32)c(C)c1C(=O)N1CCN(C)CC1 | > 20
30 | O=C1Nc2cccc(-c3ccncc3)c2/C1=C/c1[nH]cc2c1CCOC2=O | > 20
31 | O=C1Nc2cccc(C3CCNCC3)c2/C1=C/c1cc2ccccc2[nH]1 | > 20
32 | Cc1cc(C(=O)N2CCN(C)CC2)[nH]c1/C=C1\C(=O)Nc2cccc(C3CCNCC3)c21 | > 20
33 | O=C1Nc2cccc(-c3ccncc3)c2/C1=C/c1cc2ccccc2[nH]1 | 16.3
34 | CCc1cc(CCC(=O)O)c(/C=C2\C(=O)Nc3cccc(C4CCNCC4)c32)[nH]1 | > 20
35 | O=C1Nc2cccc(-c3ccncc3)c2/C1=C/c1[nH]c2c(c1CCCN1CCOCC1)CCCC2 | > 20
36 | Cc1nc[nH]c1/C=C1\C(=O)Nc2cccc(C3CCNCC3)c21 | > 20

Row | Structure (SMILES) | IC50 [µM]
37 | Cc1[nH]c(/C=C2\C(=O)Nc3cccc(-c4ccncc4)c32)c(C)c1CC(=O)O | > 20
38 | Cc1c(C(=O)N2CCCCC2)c[nH]c1/C=C1\C(=O)Nc2cccc(-c3ccncc3)c21 | > 20
39 | Cc1[nH]c(/C=C2\C(=O)Nc3cccc(-c4ccncc4)c32)c(C)c1C(=O)N1CCN(C)CC1 | > 20
40 | CCOC(=O)c1[nH]c(/C=C2\C(=O)Nc3cccc(C4CCNCC4)c32)c(CCC(=O)O)c1C | > 20
41 | O=C1Nc2cccc(C3CCNCC3)c2/C1=C/c1[nH]c2c(c1CCCN1CCOCC1)CCCC2 | > 20
42 | CCOC(=O)c1c(C)[nH]c(/C=C2\C(=O)Nc3cccc(-c4nccs4)c32)c1CCCN1CCN(C)CC1 | > 20
43 | Cc1[nH]c(/C=C2\C(=O)Nc3cccc(-c4ccccn4)c32)c(C)c1C(=O)N1CCN(C)CC1 | > 20
44 | O=C(O)CCc1c(/C=C2\C(=O)Nc3cccc(-c4ccncc4)c32)[nH]c2c1CCCC2 | > 20
45 | Cc1c(C(=O)N2CCCCC2)c[nH]c1/C=C1\C(=O)Nc2cccc(C3CCNCC3)c21 | > 20
46 | Cc1cc(C(=O)O)c(/C=C2\C(=O)Nc3cccc(C4CCNCC4)c32)[nH]1 | > 20
47 | CCc1cc(CCC(=O)O)c(/C=C2\C(=O)Nc3cccc(-c4ccncc4)c32)[nH]1 | > 20
48 | Cc1cc(C(=O)O)[nH]c1/C=C1\C(=O)Nc2cccc(-c3ccncc3)c21 | > 20
49 | Cc1[nH]c(/C=C2\C(=O)Nc3cccc(C4CCNCC4)c32)c(C)c1CCC(=O)O | > 20
50 | O=C1Nc2cccc(C3CCNCC3)c2/C1=C/c1[nH]cc(C(=O)O)c1CCO | > 20
51 | O=C1Nc2cccc(C3CCNCC3)c2/C1=C/c1[nH]cc2c1CCOC2=O | > 20
52 | CCOC(=O)c1c(C)[nH]c(/C=C2\C(=O)Nc3cccc(-c4cncc(C(=O)O)c4)c32)c1CCCN1CCN(C)CC1 | > 20
53 | CCOC(=O)c1c(C)[nH]c(/C=C2\C(=O)Nc3cccc(-c4ccc(N)nc4)c32)c1CCCN1CCN(C)CC1 | > 20
54 | Cc1cc(C(=O)O)[nH]c1/C=C1\C(=O)Nc2cccc(C3CCNCC3)c21 | > 20
55 | CCN(CC)CCNC(=O)c1c(C)[nH]c(/C=C2\C(=O)Nc3cccc(-c4ccncc4)c32)c1C | > 20
56 | O=C1Nc2cccc(C3CCNCC3)c2/C1=C/c1cc2c([nH]1)CCCC2 | > 20
57 | Cc1ccc(/C=C2\C(=O)Nc3cccc(C4CCNCC4)c32)s1 | > 20
58 | Cc1[nH]c(/C=C2\C(=O)Nc3cccc(C4CCNCC4)c32)c(-c2ccccc2)c1C(=O)Nc1ccncc1 | > 20
59 | CCOC(=O)c1c(C)[nH]c(/C=C2\C(=O)Nc3cccc(-c4cccnc4)c32)c1CCCN1CCN(C)CC1 | > 20
60 | Cc1[nH]c(/C=C2\C(=O)Nc3cccc(-c4ccc(N)nc4)c32)c(C)c1C(=O)N1CCN(C)CC1 | > 20
61 | Cc1cc(CCC(=O)O)c(/C=C2\C(=O)Nc3cccc(-c4ccncc4)c32)[nH]1 | > 20
